# Data: EP0213526A1, “Spergualin-related compounds, a process for their preparation and their use as medicaments” (MICROBIAL CHEMISTRY RESEARCH FOUNDATION, priority 1985, dated 1987)
# Assays:
# mouse leukemia L-1210 [1] = experiment: Therapeutic effects on cancer in mice (life prolongation, mouse leukemia L-1210); type: in vivo; conditions: 6 consecutive days, male BDF1 mice; for Percent life pro-longation: 10^5 L-1210 cells i.p., T/C x 100; for Percent survival for 30 days: groups of four, L-1210
# Protocol: Male BDF1 mice (5-wk old) in groups comprising four heads were inoculated intraperitoneally with 10^5 cells of mouse leukemia L-1210. Starting on the day of inoculation, a selected sample dissolved in a physiological saline solution was administered intraperitoneally to each animal for 6 consecutive days on a one-dose-per-day basis. After keeping the animals for 30 days, the life-prolongation effect of sample was determined form the following formula:
# Life-prolongation effect = T/C x 100 = (Average number of days of survival of the treated group / Average number of days of survival of the control group) x 100.
# mouse leukemia L-1210 [2] = conditions: healing experiments, from Japanese Patent Public Disclosure No. 48975/1982; cited from earlier work
# mouse leukemia FL-4 = conditions: healing experiments, from Japanese Patent Public Disclosure No. 48975/1982; cited from earlier work
# Ehrlich cancer = conditions: healing experiments, from Japanese Patent Public Disclosure No. 48975/1982; cited from earlier work
# sarcoma 180 (S-180) = conditions: healing experiments, from Japanese Patent Public Disclosure No. 48975/1982; cited from earlier work
# [3] = test system: Gram-positive microorganisms; conditions: background statement; cited from earlier work
# [4] = test system: Gram-negative microorganisms; conditions: background statement; cited from earlier work
# [5] = Dose 0.20 mg/kg/day intraperitoneally
# [6] = Dose 0.39 mg/kg/day intraperitoneally
# [7] = Dose 0.78 mg/kg/day intraperitoneally
# [8] = Dose 1.56 mg/kg/day intraperitoneally
# [9] = Dose 3.13 mg/kg/day intraperitoneally
# [10] = Dose 6.25 mg/kg/day intraperitoneally
# [11] = Dose 12.5 mg/kg/day intraperitoneally
# [12] = Dose 25 mg/kg/day intraperitoneally
# [13] = Dose 50 mg/kg/day intraperitoneally
Structure (SMILES),Percent life pro-longation (mouse leukemia L-1210 [1]; [5]) [%],Percent survival for 30 days (mouse leukemia L-1210 [1]; [5]),Percent life pro-longation (mouse leukemia L-1210 [1]; [6]) [%],Percent survival for 30 days (mouse leukemia L-1210 [1]; [6]),Percent life pro-longation (mouse leukemia L-1210 [1]; [7]) [%],Percent survival for 30 days (mouse leukemia L-1210 [1]; [7]),Percent life pro-longation (mouse leukemia L-1210 [1]; [8]) [%],Percent survival for 30 days (mouse leukemia L-1210 [1]; [8]),Percent life pro-longation (mouse leukemia L-1210 [1]; [9]) [%],Percent survival for 30 days (mouse leukemia L-1210 [1]; [9]),Percent life pro-longation (mouse leukemia L-1210 [1]; [10]) [%],Percent survival for 30 days (mouse leukemia L-1210 [1]; [10]),Percent life pro-longation (mouse leukemia L-1210 [1]; [11]) [%],Percent survival for 30 days (mouse leukemia L-1210 [1]; [11]),Percent life pro-longation (mouse leukemia L-1210 [1]; [12]) [%],Percent survival for 30 days (mouse leukemia L-1210 [1]; [12]),Percent life pro-longation (mouse leukemia L-1210 [1]; [13]) [%],Percent survival for 30 days (mouse leukemia L-1210 [1]; [13]),other results
"N=C(N)Nc1ccc(CCCC(=O)NC(O)C(=O)NCCCCNCCCN)cc1 (racemic) [Compound 1, 10-{N-[4-(4-guanidinophenyl)butanoyl]-α-hydroxyglycyl}-1,5,10-triazadecane]",110,0/4,120,0/4,155,0/4,197,0/4,> 335,2/4,> 363,2/4,> 401,3/4,> 356,2/4,0,0/4,
N=C(N)NCCCC[C@H](O)CC(=O)NC(O)C(=O)NCCCCNCCCN (stereo partly drawn) [Spergualin],,,,,,,,,,,,,,,,,,,therapeutic and life-prolonging effects (mouse leukemia L-1210 [2]): appreciable therapeutic and life-prolonging effects; therapeutic and life-prolonging effects (mouse leukemia FL-4): appreciable therapeutic and life-prolonging effects; therapeutic and life-prolonging effects (Ehrlich cancer): appreciable therapeutic and life-prolonging effects; therapeutic and life-prolonging effects (sarcoma 180 (S-180)): appreciable therapeutic and life-prolonging effects; effect of inhibiting the growth [3]: inhibiting the growth; effect of inhibiting the growth [4]: inhibiting the growth
"COC(NC(=O)CCCc1ccc(NC(=N)N)cc1)C(=O)NCCCCNCCCN (racemic) [Compound 2, 10-{N-[4-(4-guanidinophenyl)butanoyl]-α-methoxyglycyl}-1,5,10-triazadecane]",104,0/4,111,0/4,118,0/4,171,0/4,> 368,3/4,> 403,3/4,> 417,4/4,> 417,4/4,0,0/4,
